This note sets out measurements from patent US7109296B2, “Human 5-HT3-C protein” (Ortho-McNeil Pharmaceutical, Inc., priority 1999, dated 2006).

Holding throughout (type): cell-based
For one test, the target named is T1, 5-HT3-B and 5-HT3-C (Homo sapiens, UniProt O95264+Q8WXA8).
T1 construct: Characterization of the Function of Protein Encoded by p5HT3CR in Xenopus oocvtes; expressed in transfected cells; host or cells: Xenopus laevis oocytes co-injected with cRNAs
T1 sequence (O95264 22-441): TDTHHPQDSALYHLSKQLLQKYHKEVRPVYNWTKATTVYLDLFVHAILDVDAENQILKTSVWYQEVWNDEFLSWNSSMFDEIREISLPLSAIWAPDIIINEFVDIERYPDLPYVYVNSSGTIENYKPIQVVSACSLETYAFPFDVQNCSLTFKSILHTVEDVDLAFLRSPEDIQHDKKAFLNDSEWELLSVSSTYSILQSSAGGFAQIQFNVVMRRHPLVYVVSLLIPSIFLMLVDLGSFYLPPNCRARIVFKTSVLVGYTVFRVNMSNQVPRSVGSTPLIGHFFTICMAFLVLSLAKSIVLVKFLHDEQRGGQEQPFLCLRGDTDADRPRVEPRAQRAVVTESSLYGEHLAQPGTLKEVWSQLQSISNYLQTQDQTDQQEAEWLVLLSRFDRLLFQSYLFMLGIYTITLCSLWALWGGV
T1 sequence (Q8WXA8 28-447): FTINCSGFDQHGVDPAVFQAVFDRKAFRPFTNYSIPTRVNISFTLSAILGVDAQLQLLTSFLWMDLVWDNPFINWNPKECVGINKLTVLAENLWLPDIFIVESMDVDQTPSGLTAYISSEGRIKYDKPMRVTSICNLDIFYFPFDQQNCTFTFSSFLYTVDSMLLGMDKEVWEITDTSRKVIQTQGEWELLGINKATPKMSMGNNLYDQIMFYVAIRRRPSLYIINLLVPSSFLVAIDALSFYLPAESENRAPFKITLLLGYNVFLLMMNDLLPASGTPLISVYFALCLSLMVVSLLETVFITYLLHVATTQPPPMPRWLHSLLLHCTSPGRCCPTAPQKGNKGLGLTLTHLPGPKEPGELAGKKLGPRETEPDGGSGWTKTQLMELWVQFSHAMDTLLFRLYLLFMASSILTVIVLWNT
The test is described as follows: Two-electrode voltage clamp, oocytes co-injected with 5-HT3-B and 5-HT3-C. As to conditions: 10 μM; 5-HT3-B 3.3 ng, 5-HT3-C 3.35 ng/oocyte. The protocol: (§1) Characterization of the Function of Protein Encoded by p5HT3CR in Xenopus oocvtes Xenopus laevis oocytes were prepared and injected using standard methods previously described and known in the art (Fraser et al., 1993). Ovarian lobes from adult female Xenopus laevis (Nasco, Fort Atkinson, Wis.) were teased apart, rinsed several times in nominally Ca-free saline containing (in mM): NaCl 82.5, KCl 2.5, MgCl2 1, HEPES 5, adjusted to pH 7.0 with NaOH(OR-2), and gently shaken in OR-2 containing 0.2% collagenase Type 1 (ICN Biomedicals, Aurora, Ohio) for 2–5 hours. When approximately 50% of the follicular layers were removed, Stage V and VI oocytes were selected and rinsed in media consisting of 75% OR-2 and 25% ND-96. The ND-96 contained (in mM): NaCl 100, KCl 2, MgCl2 1, CaCl2 1.8, HEPES 5, Na pyruvate 2.5, gentamicin (50 ug/ml), adjusted to pH 7.0 with NaOH. […] For in vitro transcription, pGEM HE (Liman et al., 1992) containing human 5-HT3-A (Genbank D49394) or 5-HT3-C cDNA was linearized with NheI and transcribed with T7 RNA polymerase (Stratagene) in the presence of the cap analog m7G(5′)ppp(5′)G. The synthesized cRNA was purified with a Sephadex G-50 spin column. […] Control oocytes were injected with 50 nl of water. Oocytes were incubated for 2–14 days in ND-96 before analysis for expression of the human 5-HT3-C. Incubations and collagenase digestion were carried out at room temperature. Injected oocytes were maintained in 48 well cell culture clusters (Costar, Cambridge, Mass.) at 18° C. Whole cell agonist-induced currents were measured 1–14 days after injection with a conventional two-electrode voltage clamp (GeneClamp500, Axon Instruments, Foster City, Calif.) using standard methods previously described and known in the art (Dascal, 1987). The microelectrodes were filled with 3 M KCl, which had resistances of 1 and 2 MΩ. Cells were continuously perfused with ND96 at 10 ml/min at room temperature unless indicated. Membrane voltage was clamped at −70 mV unless indicated.

Test [1] concerns the target T2, human 5-HT3-A(short) together with 5-HT3-C (Homo sapiens, UniProt P46098).
T2 construct: Characterization of the Function of Protein Encoded by p5HT3CR in Xenopus oocvtes; expressed in transfected cells; host or cells: Xenopus laevis oocytes co-injected with cRNAs
T2 sequence (P46098 24-478): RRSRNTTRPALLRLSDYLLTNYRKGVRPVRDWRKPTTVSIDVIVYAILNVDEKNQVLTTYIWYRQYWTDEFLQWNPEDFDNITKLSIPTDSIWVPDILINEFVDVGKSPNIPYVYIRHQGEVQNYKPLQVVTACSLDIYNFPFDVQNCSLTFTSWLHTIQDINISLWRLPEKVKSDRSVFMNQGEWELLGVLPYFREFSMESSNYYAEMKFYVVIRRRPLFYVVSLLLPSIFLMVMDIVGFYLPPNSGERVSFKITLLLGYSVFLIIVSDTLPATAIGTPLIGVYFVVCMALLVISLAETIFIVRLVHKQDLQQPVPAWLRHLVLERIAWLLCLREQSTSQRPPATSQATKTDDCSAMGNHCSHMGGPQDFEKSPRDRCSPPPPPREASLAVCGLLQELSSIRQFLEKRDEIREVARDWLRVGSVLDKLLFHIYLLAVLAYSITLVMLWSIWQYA
The test is described as follows: Two-electrode voltage clamp, oocytes co-injected with 5-HT3-A(short) and 5-HT3-C. Here is the method: as §1
Functional expression of human serotonin 5-HT3 receptor modifier subunit 5-HT3-C together with the human short form of the 5-HT3-A receptor (Genbank accession # D49394) in Xenopus oocytes is shown in FIGS. 4 and 5. Agonist was applied during the time indicated by the horizontal bar above the record. […] As a positive control for translation and surface expression, all oocytes were co-injected with a Shaker potassium channel N-terminal deletion mutant that lacks fast inactivation. […] Oocytes were continuously perfused with Ba^2+ containing ND96 at a rate of 10 ml/min at room temperature. Time scale bar: 25 sec. Similar results were obtained in experiments in which oocytes were bathed in Ca^2+ containing ND96.
For orientation: Two-electrode voltage clamp is typically applied to oocytes expressing channels or transporters.

A further test concerns the target T3, human 5-HT3-C (Homo sapiens, UniProt Q8WXA8).
T3 construct: Characterization of the Function of Protein Encoded by p5HT3CR in Xenopus oocvtes; expressed in transfected cells; host or cells: Xenopus laevis oocytes injected with in vitro transcribed cRNA (pGEM HE)
T3 sequence (Q8WXA8 28-447): T1 sequence (Q8WXA8 28-447)
The test is described as follows: Two-electrode voltage clamp, Xenopus oocytes injected with 5-HT3-C cRNA alone. Here is the method:
as §1

In the case of `NCCc1c[nH]c2ccc(O)cc12` [5-HT, 5-hydroxytryptamine], the “responsiveness of oocytes to agonist” value at 5-HT3-B and 5-HT3-C is given as “unresponsive”. Further, the “peak response to 5-HT” value in test [1] (10 μM 5-HT, 2-fold more 5-HT3-C cRNA (0.67 ng), control = 5-HT3-A homomeric) is “about 10 % of control”. Moreover, the “effect of 5-HT3-C on 5-HT response” value in test [1] (1:1 ratio, n=6) is listed as “little effect”. The 5-HT response diminished result in test [1] (1.8×fold 5-HT3-C to 5-HT3-A cRNA concentration, n=3) was “about 20%”. In addition, the “peak currents to 5-HT” value in test [1] (5-HT3-C and 5-HT3-A(short) at a ratio of 2:1, n=20) is −0.028+/−0.007 nA. The “sensitivity of oocytes to 5-HT” value in test [1] (5-HT3-C:5-HT3-A(short) 10:1) is “essentially insensitive”. Moreover, in test [1] (10 LM 5-HT, 5-HT3-C:5-HT3-A(short) 10:1 (3.35 ng : 0.33 ng), n=6), the “Responses to 5-HT” value was −0.010+/−0.008 nA. The “sensitivity of oocytes to neuroactive compound” value at human 5-HT3-C (>100 μM, only 5-HT3-C cRNA (33.5 ng), n=5) is given as “insensitive”. At human 5-HT3-C (≧100 μM, 33.5 ng or 3.35 ng 5-HT3-C cRNA/oocyte), the “effect of agonist (agonist-induced current)” value is reported as “no effect”.
